Measurements taken from PMC9508239 (Nature Communications, 2022).
Where “and” joins values, the source holds several entries; their conditions need not be identical. Equal entries are not always repeated.

How the values were obtained:
[1] = test system: IR R14A; experiment: Auto-phosphorylation of IR in 293FT cells expressing IR R14A; assay type: cell-based, human
Experimental: (§1) For the activation assay, the short isoform of human IR in pCS2-MYC was used as described previously[20],[49]. Plasmid transfections into 293FT cells were performed with Lipofectamin^TM 2000 (Invitrogen).
(§2) The cells were incubated with the lysis buffer B [50 mM Hepes pH 7.4, 150 mM NaCl, 10% Glycerol, 1% Triton X-100, 1 mM EDTA, 100 mM sodium fluoride, 2 mM sodium orthovanadate, 20 mM sodium pyrophosphate, 0.5 mM dithiothreitol (DTT), 2 mM phenylmethylsulfonyl fluoride (PMSF)] supplemented with cOmplete Protease Inhibitor Cocktail (Roche), PhosSTOP (Sigma), and 25 U/ml turbo nuclease (Accelagen) on ice for 1 h. After centrifuging at 20,817×g at 4 °C for 10 min, the concentrations of cell lysate were measured using Micro BCA Protein Assay Kit (Thermo Scientific). About 50–60 μg total proteins were analyzed by SDS-PAGE and quantitative Western blotting. […] For quantitative western blots, anti-rabbit immunoglobulin G (IgG) (H + L) (WB, 1:5000; Dylight 800 conjugates, Cat. #5151) and anti-mouse IgG (H + L) (WB, 1:5000; Dylight 680 conjugates, Cat. #5470) (Cell Signaling) were used as secondary antibodies. […]

[2] = test system: IR D496K; experiment: Auto-phosphorylation of IR in 293FT cells expressing IR D496K; assay type: cell-based, human
Experimental: as §1, §2

[3] = test system: blood glucose; experiment: Insulin tolerance test; assay type: in vivo, mouse; conditions: i.p.; Humulin 6 nmol/kg, S597, S20D, W6A, F27A 9 nmol/kg, N20 27 nmol/kg; male mice
Experimental: Briefly, 2–3 months old male mice were fasted for 2 h and their blood glucose levels (T = 0) were measured with tail bleeding using a glucometer (AlphaTRAK). After then, mice were injected intraperitoneally with Humulin (6 nmol/kg body weight), S597 (9 nmol/kg), S597-S20D (9 nmol/kg), S597-W6A (9 nmol/kg), S597-F27A (9 nmol/kg), or S597-N20 (27 nmol/kg), and their blood glucose levels were measured at the indicated time points after injection.

[4] = test system: blood glucose; experiment: Oral glucose tolerance test after chronic treatment; assay type: in vivo, mouse; design: Mean Diff. of blood glucose (OGTT) / blood glucose (OGTT) / Supplementary Figure 10d (area under the OGTT glucose curve): unit not given here; conditions: for Mean Diff. of blood glucose (OGTT), PBS vs. treatment: PBS minus treatment, Tukey's multiple comparisons test; for Mean Diff. of blood glucose (OGTT): Dunnett's multiple comparisons test; for Supplementary Figure 10d (area under the OGTT glucose curve): time 0-120
Experimental: (§3) For the oral glucose tolerance test, mice were fasted for 6 h and their blood glucose levels (T = 0) were measured with tail bleeding using a glucometer (AlphaTRAK). After then, glucose (2 g/kg body weight) was administered by oral gavage. Blood glucose levels were measured at the indicated time points after glucose administration. For Fig. S10f, 2 months old male mice were fasted for 14 h. […] One hour later, livers were collected.

[5] = Body weight after chronic treatment, before OGTT; assay type: in vivo, mouse
Experimental: as §3

Q: Which IR activation [1] does the source give for “insulin: native IR ligand used as comparator; Humulin in the in vivo tests” here?
A: reduced insulin-dependent IR activation

Q: And the IR activation [2]?
A: reduced insulin-dependent IR activation

Q: What about the blood glucose lowering [3] of the same substance?
A: significantly reduced

Q: What about the “Mean Diff. of blood glucose (OGTT), PBS vs. treatment” value ([4]; Row 1 (time 0)) of the same substance?
A: -8

Q: What about the “Mean Diff. of blood glucose (OGTT)” value ([4]; Row 1 vs. Row 2 (time 0 minus time 15)) of the same substance?
A: -254.8

Q: What about the “Mean Diff. of blood glucose (OGTT)” value ([4]; Row 1 vs. Row 3 (time 0 minus time 30)) of the same substance?
A: -168.8

Q: And the “Mean Diff. of blood glucose (OGTT)” value ([4]; Row 1 vs. Row 4 (time 0 minus time 60))?
A: -60

Q: And the “Mean Diff. of blood glucose (OGTT)” value ([4]; Row 1 vs. Row 5 (time 0 minus time 120))?
A: -35.2

Q: What about the “Mean Diff. of blood glucose (OGTT), PBS vs. treatment” value ([4]; Row 2 (time 15)) of the same substance?
A: -66.2

Q: What about the “Mean Diff. of blood glucose (OGTT), PBS vs. treatment” value ([4]; Row 3 (time 30)) of the same substance?
A: -9

Q: And the “Mean Diff. of blood glucose (OGTT), PBS vs. treatment” value ([4]; Row 4 (time 60))?
A: 1

Q: What about the “Mean Diff. of blood glucose (OGTT), PBS vs. treatment” value ([4]; Row 5 (time 120)) of the same substance?
A: -9.8

Q: What about the “Supplementary Figure 10d (area under the OGTT glucose curve)” value (from here on “Supplementary Figure 10d”) ([4]; mouse 1) of the same substance?
A: 37808

Q: And the “Supplementary Figure 10d” value ([4]; mouse 2)?
A: 37043

Q: And the “Supplementary Figure 10d” value ([4]; mouse 3)?
A: 31785

Q: And the “Supplementary Figure 10d” value ([4]; mouse 4)?
A: 39735

Q: And the “Supplementary Figure 10d” value ([4]; mouse 5)?
A: 46950

Q: What about the “blood glucose (OGTT)” value ([4]; time 0, mouse 1) of the same substance?
A: 197

Q: What about the “blood glucose (OGTT)” value ([4]; time 0, mouse 2) of the same substance?
A: 199

Q: And the “blood glucose (OGTT)” value ([4]; time 0, mouse 3)?
A: 224

Q: And the “blood glucose (OGTT)” value ([4]; time 0, mouse 4)?
A: 245

Q: What about the “blood glucose (OGTT)” value ([4]; time 0, mouse 5) of the same substance?
A: 272

Q: What about the “blood glucose (OGTT)” value ([4]; time 15, mouse 1) of the same substance?
A: 530

Q: And the “blood glucose (OGTT)” value ([4]; time 15, mouse 2)?
A: 406

Q: And the “blood glucose (OGTT)” value ([4]; time 15, mouse 3)?
A: 488

Q: And the “blood glucose (OGTT)” value ([4]; time 15, mouse 4)?
A: 463

Q: What about the “blood glucose (OGTT)” value ([4]; time 15, mouse 5) of the same substance?
A: 524

Q: What about the “blood glucose (OGTT)” value ([4]; time 30, mouse 1) of the same substance?
A: 434

Q: And the “blood glucose (OGTT)” value ([4]; time 30, mouse 2)?
A: 354

Q: And the “blood glucose (OGTT)” value ([4]; time 30, mouse 3)?
A: 258

Q: And the “blood glucose (OGTT)” value ([4]; time 30, mouse 4)?
A: 409

Q: And the “blood glucose (OGTT)” value ([4]; time 30, mouse 5)?
A: 526

Q: What about the “blood glucose (OGTT)” value ([4]; time 60, mouse 1) of the same substance?
A: 273

Q: And the “blood glucose (OGTT)” value ([4]; time 60, mouse 2)?
A: 303

Q: What about the “blood glucose (OGTT)” value ([4]; time 60, mouse 3) of the same substance?
A: 206

Q: What about the “blood glucose (OGTT)” value ([4]; time 60, mouse 4) of the same substance?
A: 300

Q: And the “blood glucose (OGTT)” value ([4]; time 60, mouse 5)?
A: 355

Q: And the “blood glucose (OGTT)” value ([4]; time 120, mouse 1)?
A: 211

Q: What about the “blood glucose (OGTT)” value ([4]; time 120, mouse 2) of the same substance?
A: 262

Q: What about the “blood glucose (OGTT)” value ([4]; time 120, mouse 3) of the same substance?
A: 257

Q: What about the “blood glucose (OGTT)” value ([4]; time 120, mouse 4) of the same substance?
A: 275

Q: What about the “blood glucose (OGTT)” value ([4]; time 120, mouse 5) of the same substance?
A: 308

Q: And the “Body weight before OGTT” value ([5]; 50U/kg body weight, i.p., once daily for three days, male C57BL/6J, individual mice, N = 5, listed as Ins, in g (unit assumed))?
A: 19.9 and 21.6

Q: And the “Body weight, significance” value ([5]; 50U/kg once daily for three days, two-tailed Student's t-test)?
A: No significant
